Starred links: 1 amine or outer side, 2 acyl side, 3 side chain; linkers in the order of their positions; H or OH if unused. Non-standard residues stand in square brackets, D forms with d. Residues, ends and D or L forms follow the SMILES beside them. *: point of attachment. Benzoyl(4-(pyrrol-1-yl)) = O=C(c1ccc(-n2cccc2)cc1)*; Phenylacetyl(3,4-Cl2) = O=C(Cc1ccc(Cl)c(Cl)c1)*; Cysteamide = C(CS[*:3])N[*:1]; Dap = NC[C@H](N)C(=O)O

Usually Ki stands for a measure of affinity in units of concentration, obtained from inhibition or displacement.

The target in one assay is PKC β1 (Homo sapiens, UniProt P05771). The settings on record: literature values; relative to most potently inhibited isoform (=1); cited from earlier work.
Sequence of PKC β1 (P05771 whole entry, canonical isoform): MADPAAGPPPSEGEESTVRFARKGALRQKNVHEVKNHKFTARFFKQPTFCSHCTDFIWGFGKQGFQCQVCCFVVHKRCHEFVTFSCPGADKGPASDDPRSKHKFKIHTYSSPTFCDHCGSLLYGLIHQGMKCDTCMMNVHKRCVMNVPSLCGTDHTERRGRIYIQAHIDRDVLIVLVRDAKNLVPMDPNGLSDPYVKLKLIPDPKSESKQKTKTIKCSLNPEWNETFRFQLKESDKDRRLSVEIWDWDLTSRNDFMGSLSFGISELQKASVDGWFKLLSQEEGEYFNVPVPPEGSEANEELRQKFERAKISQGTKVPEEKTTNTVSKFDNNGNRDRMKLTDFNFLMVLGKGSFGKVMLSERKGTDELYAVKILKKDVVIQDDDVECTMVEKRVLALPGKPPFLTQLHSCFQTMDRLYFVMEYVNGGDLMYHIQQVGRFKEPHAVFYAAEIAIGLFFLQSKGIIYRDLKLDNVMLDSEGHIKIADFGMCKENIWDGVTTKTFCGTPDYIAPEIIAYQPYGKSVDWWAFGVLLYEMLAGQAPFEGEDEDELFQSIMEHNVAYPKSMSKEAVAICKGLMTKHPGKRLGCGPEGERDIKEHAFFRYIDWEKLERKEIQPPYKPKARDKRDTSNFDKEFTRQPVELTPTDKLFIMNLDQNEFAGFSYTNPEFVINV
The next assay concerns the target T1, PKCε (Homo sapiens, UniProt Q02156).
T1 sequence (Q02156 1-737): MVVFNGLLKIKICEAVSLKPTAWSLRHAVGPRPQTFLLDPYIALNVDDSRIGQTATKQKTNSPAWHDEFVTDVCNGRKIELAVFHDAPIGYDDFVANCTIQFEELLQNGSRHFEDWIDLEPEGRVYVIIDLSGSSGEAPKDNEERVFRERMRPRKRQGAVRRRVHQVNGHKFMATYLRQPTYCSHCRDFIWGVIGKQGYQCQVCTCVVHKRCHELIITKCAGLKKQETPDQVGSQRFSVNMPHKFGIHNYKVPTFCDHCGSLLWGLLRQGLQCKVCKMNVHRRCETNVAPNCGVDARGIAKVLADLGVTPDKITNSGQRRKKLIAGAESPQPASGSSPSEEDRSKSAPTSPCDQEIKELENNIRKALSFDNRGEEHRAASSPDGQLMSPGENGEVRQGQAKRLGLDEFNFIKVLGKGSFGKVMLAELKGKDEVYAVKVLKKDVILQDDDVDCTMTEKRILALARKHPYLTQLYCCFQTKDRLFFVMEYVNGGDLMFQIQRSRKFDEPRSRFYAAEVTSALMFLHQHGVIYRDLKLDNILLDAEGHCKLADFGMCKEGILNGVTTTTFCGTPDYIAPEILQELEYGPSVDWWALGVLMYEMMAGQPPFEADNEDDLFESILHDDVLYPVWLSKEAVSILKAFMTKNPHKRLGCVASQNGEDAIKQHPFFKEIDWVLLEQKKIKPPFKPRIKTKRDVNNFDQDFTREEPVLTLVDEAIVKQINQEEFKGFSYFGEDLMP
Put plainly: PKC isoform assay, Example 1. It counts as biochemical. Further details: purchased Pan Vera. As for the experimental part:
(§1) Protein Kinase C Assay (general). The peptides Ac-Ser-Phe-Arg-Arg-Arg-NH2 (for PKC α, β and γ) and acetyl-[…]NH2 (for PKC ε and ζ) were used as substrates.
PKCε and ζ Assay (IC50 determinations). […] 10 μL enzyme diluted buffer containing 10 mM HEPES (pH 7.5), 10 mM DTT, BSA(3.8 mg/mL), 10 mM EDTA.4Na.2H2O and PKC (20 ng/μL) were added last to this buffer. Reactions were carried out as described above for the Protein Kinase Cα assay.

For another assay, the target named is PKCθ (Homo sapiens, UniProt Q04759). In words: PKC isoform assay, Example 1. It counts as biochemical. Further details: purchased Pan Vera.
Sequence of PKCθ (Q04759 whole entry, canonical isoform): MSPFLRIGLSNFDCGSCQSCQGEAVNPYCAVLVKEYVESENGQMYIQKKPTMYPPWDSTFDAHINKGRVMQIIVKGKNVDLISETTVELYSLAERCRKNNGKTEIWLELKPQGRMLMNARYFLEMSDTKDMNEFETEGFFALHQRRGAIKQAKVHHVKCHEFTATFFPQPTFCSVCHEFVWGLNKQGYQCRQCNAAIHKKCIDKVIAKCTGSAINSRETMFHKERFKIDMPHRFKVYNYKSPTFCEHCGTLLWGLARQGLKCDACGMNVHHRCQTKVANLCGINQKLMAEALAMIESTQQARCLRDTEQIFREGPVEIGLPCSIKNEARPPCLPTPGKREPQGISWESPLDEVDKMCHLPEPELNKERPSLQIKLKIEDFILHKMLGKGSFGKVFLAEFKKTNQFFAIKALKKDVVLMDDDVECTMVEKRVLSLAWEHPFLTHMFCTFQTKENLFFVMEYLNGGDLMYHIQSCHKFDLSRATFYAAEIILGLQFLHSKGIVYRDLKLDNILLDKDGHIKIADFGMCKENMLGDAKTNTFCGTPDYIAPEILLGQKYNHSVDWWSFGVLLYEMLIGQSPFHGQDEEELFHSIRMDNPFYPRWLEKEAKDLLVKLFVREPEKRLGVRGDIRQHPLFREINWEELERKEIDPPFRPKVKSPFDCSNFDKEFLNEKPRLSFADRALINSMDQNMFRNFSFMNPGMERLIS
From the text: as §1

A further assay concerns the target PKCη (Homo sapiens, UniProt P24723). In words: PKC isoform assay, Example 1. It is filed as biochemical. Further details: purchased Pan Vera.
From the text: as §1

The target of assay [1] is T2, PKCδ (Homo sapiens, UniProt Q05655). In words: PKC isoform assay, Example 1. Further details: purchased Pan Vera. It is filed as biochemical.
T2 sequence (Q05655 whole entry, canonical isoform): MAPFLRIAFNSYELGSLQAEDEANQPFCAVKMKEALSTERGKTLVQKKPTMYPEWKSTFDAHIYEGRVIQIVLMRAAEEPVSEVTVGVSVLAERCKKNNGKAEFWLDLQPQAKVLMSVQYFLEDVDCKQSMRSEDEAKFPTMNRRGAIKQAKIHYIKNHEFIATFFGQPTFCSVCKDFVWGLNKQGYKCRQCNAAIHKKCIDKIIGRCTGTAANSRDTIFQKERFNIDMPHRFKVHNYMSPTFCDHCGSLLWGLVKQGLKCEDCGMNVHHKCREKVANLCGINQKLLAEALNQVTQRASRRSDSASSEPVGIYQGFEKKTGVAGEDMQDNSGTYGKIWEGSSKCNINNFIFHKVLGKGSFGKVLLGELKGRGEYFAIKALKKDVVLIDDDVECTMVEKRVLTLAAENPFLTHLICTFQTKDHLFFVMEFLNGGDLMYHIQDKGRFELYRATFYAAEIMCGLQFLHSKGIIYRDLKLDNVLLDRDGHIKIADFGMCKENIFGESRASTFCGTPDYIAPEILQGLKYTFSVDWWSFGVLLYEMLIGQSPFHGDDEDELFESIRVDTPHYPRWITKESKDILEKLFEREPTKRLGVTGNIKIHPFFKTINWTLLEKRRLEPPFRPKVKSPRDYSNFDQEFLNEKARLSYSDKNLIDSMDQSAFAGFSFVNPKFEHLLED
From the text: as §1

The target in the next assay is PKCγ (Homo sapiens, UniProt P05129). Further details: purchased Panvera. The settings on record: literature values; relative to most potently inhibited isoform (=1); cited from earlier work.
Another assay has as its target T3, PKCτ (Homo sapiens, UniProt P41743).
T3 construct: purchased Pan Vera
T3 sequence (P41743 1-596): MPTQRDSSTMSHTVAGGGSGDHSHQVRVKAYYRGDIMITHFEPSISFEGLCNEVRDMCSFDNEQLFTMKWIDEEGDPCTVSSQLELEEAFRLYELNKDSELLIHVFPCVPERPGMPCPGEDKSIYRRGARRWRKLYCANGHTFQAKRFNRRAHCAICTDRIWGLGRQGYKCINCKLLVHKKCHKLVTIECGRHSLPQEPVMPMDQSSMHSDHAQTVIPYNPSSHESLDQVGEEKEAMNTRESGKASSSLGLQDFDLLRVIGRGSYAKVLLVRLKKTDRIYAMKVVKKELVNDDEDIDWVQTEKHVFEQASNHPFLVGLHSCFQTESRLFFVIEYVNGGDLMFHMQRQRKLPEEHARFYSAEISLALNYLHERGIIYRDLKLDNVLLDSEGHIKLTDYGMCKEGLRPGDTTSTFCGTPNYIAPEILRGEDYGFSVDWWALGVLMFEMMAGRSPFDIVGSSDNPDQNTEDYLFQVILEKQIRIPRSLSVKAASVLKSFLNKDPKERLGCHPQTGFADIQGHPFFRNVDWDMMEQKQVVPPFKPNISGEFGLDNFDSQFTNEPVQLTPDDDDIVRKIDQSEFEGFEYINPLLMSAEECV
Put plainly: PKC isoform assay, Example 1. It counts as biochemical.
From the text: as §1

The target in the next assay is PKCα (Homo sapiens, UniProt P17252). To be noted: cited from earlier work.
For the next assay, the target named is T4, PKCβ (Homo sapiens, UniProt P05771).
T4 construct: purchased Pan Vera
T4 sequence (P05771 whole entry): as the sequence (P05771 whole entry, canonical isoform) above
In words: PKC isoform assay, Example 1. It is filed as biochemical. On the procedure:
Protein Kinase C Assay (general). The peptides […] (for PKC α, β and γ) and acetyl-[…] (for PKC ε and ζ) were used as substrates. […] Total reaction volume was 50 μL. […] Following an additional 5 min incubation at ambient temperature, 75 μL from each reaction well was transferred into each well of a Unifilter (P81 cellulose phosphate paper) assay plate and washed four times with 0.1% phosphoric acid in water. […] IC50 values were calculated using GraFit (Erithacus Software Limited) and Ki values were calculated using Enzyme Kinetics, SigmaPlot (SPSS Inc.)

For assay [2], the target named is T2, PKCδ. Further details: purchased Panvera. The settings on record: literature values; relative to most potently inhibited isoform (=1); cited from earlier work.

Sequence of PKCη (P24723 whole entry, canonical isoform): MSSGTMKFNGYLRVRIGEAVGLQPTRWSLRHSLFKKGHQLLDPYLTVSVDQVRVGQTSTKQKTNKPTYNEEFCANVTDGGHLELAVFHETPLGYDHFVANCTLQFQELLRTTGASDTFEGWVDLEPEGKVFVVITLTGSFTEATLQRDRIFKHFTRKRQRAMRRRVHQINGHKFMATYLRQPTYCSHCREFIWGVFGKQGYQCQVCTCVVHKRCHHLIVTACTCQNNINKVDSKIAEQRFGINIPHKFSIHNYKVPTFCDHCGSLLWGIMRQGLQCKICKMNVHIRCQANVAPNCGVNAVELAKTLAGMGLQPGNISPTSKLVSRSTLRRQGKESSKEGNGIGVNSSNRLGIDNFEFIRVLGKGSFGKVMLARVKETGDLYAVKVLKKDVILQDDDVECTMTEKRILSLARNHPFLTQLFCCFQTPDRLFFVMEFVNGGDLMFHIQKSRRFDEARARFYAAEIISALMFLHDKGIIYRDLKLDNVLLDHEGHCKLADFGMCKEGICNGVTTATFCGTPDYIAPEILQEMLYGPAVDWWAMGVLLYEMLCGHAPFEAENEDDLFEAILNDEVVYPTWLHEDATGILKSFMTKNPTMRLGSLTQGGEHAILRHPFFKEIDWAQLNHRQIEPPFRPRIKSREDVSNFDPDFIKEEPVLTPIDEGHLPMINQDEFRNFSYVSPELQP

With `CC(C)C[C@H](NC(=O)[C@H](C)NC(=O)CNC(=O)[C@H](CCCNC(=N)N)NC(=O)[C@H](CCCNC(=N)N)NC(=O)[C@H](C)NC(=O)Cc1ccc(Cl)c(Cl)c1)C(=O)N[C@@H](CCCNC(=N)N)C(=O)N[C@@H](CNC(=O)c1ccc(-n2cccc2)cc1)C(=O)N[C@@H](C)C(=O)NCCS` [Compound 6] ({Phenylacetyl(3,4-Cl2)}-ARRGALR[Dap](Benzoyl(4-(pyrrol-1-yl)))A-Cysteamide), the “Fold selectivity (IC50), PKC β1” value at PKC β1 is given as 385 fold. In addition, the “selectivity for PKCα versus PKCε” value on PKCε came out at 600 fold. Also, the “selectivity for PKCα versus PKCθ” value on PKCθ is 1210 fold. Further, on PKCη, the “selectivity for PKCα versus PKCη” value turned out to be 1310 fold. Besides, on PKCδ [1], the “selectivity for PKCα versus PKCδ” value is 2730 fold. For the same compound, the “Fold selectivity (IC50), PKC γ” value on PKCγ was 580 fold. For the same compound, the “selectivity for PKCα versus PKCτ” value at PKCτ is given as 940 fold. Also, the Ki at PKCα (Lee et al., 2004, equals the Ki of compound 6 in Table 1, read-out: IC50 or Ki of the most potently inhibited isoform, PKC α (in parentheses)) is 0.8 nM. Moreover, the “Fold selectivity (IC50), PKC α” value at PKCα (literature values, relative to most potently inhibited isoform (=1)) is recorded as 1 fold. Besides, at PKCβ, the “selectivity for PKCα versus PKCβ” value came out at 385 fold. Moreover, the “Fold selectivity (IC50), PKC δ” value at PKCδ [2] is 2730 fold.
